For 1 compound, IC50 results are on record in patent US10517961B2, “Drug formulation based on particulates comprising polysaccharide-vitamin conjugate” (ZY Therapeutics, Inc., priority 2015, dated 2019).

Structures are written as SMILES.

As usually defined, the IC50 is the concentration at which inhibition is half-maximal.

This assay concerns human non-small lung cancer cells. Description: In vitro cytotoxicity. It is filed as cell-based. The conditions noted are these: 72 hrs, cell survival ratio.

As for `CC(=O)O[C@H]1C(=O)[C@@]2(C)[C@H]([C@H](OC(=O)c3ccccc3)[C@]3(O)C[C@H](OC(=O)[C@H](O)[C@@H](NC(=O)c4ccccc4)c4ccccc4)C(C)=C1C3(C)C)[C@]1(OC(C)=O)CO[C@@H]1C[C@@H]2O` [paclitaxel], the IC50 was approximately 10 nM.
